In US5998648A, “Anticancer (IV) complexes for oral administration and a method of making the same” (Korea Institute of Science and Technology, priority 1997, dated 1999):

Key:
L1210 leukemia = experiment: Oral anticancer activity (survival time of L1210 leukemia-implanted BDF1 mice); format: in vivo, BDF1 mice; L1210 cells from DBA/2 mice; details: for Increase ratio in the survival time (T/C, %): Dose 150 mg/kg, daily for consecutive five days, L1210 implanted intraperitoneally
Method: The oral anticancer activity of the hexa-coordinate platinum(IV) complexes of the present invention was evaluated as follows. A group of eight 6-week old BDF1 mice was employed to test for each compound. 1×10^5 cells of L1210 leukemia in ascitic fluid from DBA/2 mice were implanted intraperitoneally in each mouse. The test solutions containing platinum(IV) complexes at different concentrations were orally administered daily for consecutive five days. The survival time of each group of the mice was recorded. The percent increase in the survival time as compared to the control group, T/C (%), was calculated as an indicator of the anticancer activity. The results are summarized in Table I. Drugs that have more than 125% of the T/C (%) values can be considered as efficient anticancer drugs. […] It is expected that the complex in Example 1 could be practically applicable since the acute toxicity was also low (LD50 =300 mg/kg)

Acute toxicity = format: in vivo

Compound	Increase ratio in the survival time (T/C, %) (L1210 leukemia) [%]	anticancer activity (in words) (L1210 leukemia)	acute toxicity / toxicity (in words) (Acute toxicity; in vivo)	acute toxicity LD50 (Acute toxicity; species and route not given) [mg/kg]
[NH2 CH2 C(CH3)2 CH2 NH2 ]Pt(OOCC2 H5)4 [Example 6]	130.8	–	–	–
(DACH)PtCl2 (OAc)4 [compound 2, reference compound]	103.1	–	–	–
[OH][Pt]1([OH])([OH])([OH])[NH]C2CCCCC2[NH]1 (stereo not drawn) [compound 1, (DACH)Pt(OH)4, reference compound]	108.8	–	–	–
CCCC(=O)[O][Pt]1([O]C(=O)CCC)([O]C(=O)CCC)([O]C(=O)CCC)[NH]CC[NH]1 [Example 4, (NH2 CH2 CH2 NH2)Pt(OOCC3 H7)4]	115.4	–	–	–
CCCC(=O)[O][Pt]1([O]C(=O)CCC)([O]C(=O)CCC)([O]C(=O)CCC)[NH]C2CCCCC2[NH]1 (stereo not drawn) [Example 2]	139.1	–	–	–
CCC(=O)[O][Pt]([O]C(=O)CC)([O]C(=O)CC)[O]C(=O)CC.NC1CCCCC1N [Example 1]	160.9	excellent anticancer activity	low	300
